From patent publication US20250129101A1, “Compound, Pharmaceutical Composition Comprising the Same and Method for Treating Cancer Using the Same” (NATIONAL TSING HUA UNIVERSITY, priority 2023, published 2025) come the findings set out here.

Structures are written as SMILES.

The test system of one series is 4T1 R4. Description: In vivo tumor growth inhibition, 4T1 R4 syngeneic model. The arrangement: species or system mouse. The note with it: R4 tumors, BALB/c mice. As for the experimental part: (§1) The mice were housed at the National Health Research Institute (NHRI) Animal Center in accordance with the Institutional Animal Care and Use Committee procedures and guidelines. The 4T1-derived cells, including 4T1, 4T1 R4, and 4T1 R8, used for implantation were harvested during log phase growth and resuspended in phosphate-buffered saline. Each mouse was injected s.c. in the right flank with 5×10^5 cells. After tumor size reached 60-100 mm 3 (D1), mice were divided into groups and received treatment with vehicle or different compounds alone or in combinations. Tumor size, in mm 3, was measured twice per week and calculated from Tumor volume=(w 2×1)/2, where w=width and 1=length in mm of the tumor. The values of tumor size were expressed as mean±SEM.

For a further series, the target named is T1, KIF2C (Homo sapiens, UniProt Q99661).
T1 construct: KIF2C (216-598 a.a.); 6xHis (C); made in house; host or cells: E. coli BL21 (DE3), pET-28a
T1 sequence (Q99661 216-598): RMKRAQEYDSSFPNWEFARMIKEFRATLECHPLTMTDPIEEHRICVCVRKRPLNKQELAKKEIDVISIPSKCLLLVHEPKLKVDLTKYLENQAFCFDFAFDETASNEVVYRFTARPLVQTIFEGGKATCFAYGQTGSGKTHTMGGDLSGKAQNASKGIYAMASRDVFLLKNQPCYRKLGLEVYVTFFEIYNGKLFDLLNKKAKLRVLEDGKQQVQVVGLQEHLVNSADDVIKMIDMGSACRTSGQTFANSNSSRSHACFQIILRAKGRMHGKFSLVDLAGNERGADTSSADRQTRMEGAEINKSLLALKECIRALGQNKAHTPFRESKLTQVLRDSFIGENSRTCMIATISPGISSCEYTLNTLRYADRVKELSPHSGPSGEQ
Description: In vitro validation: KIF2C kinesin activity, malachite green-based phosphate colorimetric assay. In kind it is biochemical. The method in brief:
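KIF2C sN+M construct (aa 216-598, C-terminal 6×His, E. coli-expressed) ATPase activity with microtubules from porcine brain tubulin or HEK293 (293Fs) cells in BRB80 (80 mM PIPES pH 6.8, 1 mM GTP, 10% DMSO), 37° C for 2 hr. Released phosphate detected by malachite green reagent, 10 min, A650.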

Another series deals with 4T1 R4 cells. The series is described as follows: Colony formation assay, 4T1 R4 cells. The conditions noted are these: 1 μM 7S9 with 400 nM paclitaxel. In kind it is cell-based, mouse. As for the experimental part:
To assess the long-term survival of breast cancer cell lines following the treatment of KIF2C knockdown or inhibition, the cells trypsinized into single-cell suspension were homogeneously seeded in 6-well cell culture plates at a density of 5000 cells per dish, supplemented with 2× complete medium (50% 4×DMEM, 20% FBS, 2% penicillin-streptomycin, ddH2O, and 2× glutaMAX™), agarose (0.6% for bottom agar layer; 0.3% for top cell layer), ddH2O, and DMEM. After incubation for 24 hr, cells were treated with indicated drugs, such as DMSO, KIF2C inhibitors, or chemotherapy drugs, and then cultured at 37° C. incubator in an atmosphere of humidified air with 5% CO2 for a further 14-30 days. When the cell colonies grew to appropriate sizes, the culture mediums were replaced with PBS for washing. After that, the plates were stained with 10% crystal violet and analyzed using Image J.

In series [1] the test system is 4T1 cells. The series is described as follows: In vivo tumor growth inhibition, 4T1 syngeneic model. The arrangement: species or system mouse. The conditions noted are these: 4T1 tumors, BALB/c mice. The protocol: as §1
Series [2] relates to 4T1 cells. Description: Flow cytometry analysis of cell membrane penetration ability. The conditions noted are these: 2 hr of drug treatment. Type of series: cell-based, mouse. As for the experimental part: To quantify the cell membrane penetration ability of different DHTP analogs, 4T1 cells were collected by trypsin after 2 hr of drug treatment and then transferred into microcentrifuge tubes. 4T1 cells were then resuspended into the FACS buffer (1% FBS, 2 mM EDTA, and 0.05% NaN3 in PBS). After two times of FACS buffer rinsing, these samples were detected by flow cytometry (Cyto FLEX™ FLOW Cytometer). The KO525 (405 nm laser; 525 nm filter) channel was used to detect DHTP and 7S9.
For orientation: A flow cytometer gives signals particle by particle.

[3] abbreviates: 7S9 50 mg/kg intraperitoneally, 5on/2off two cycles.

One may read the EC50 as the midpoint of the concentration-response curve.

As to `CCN1CCN(C(=O)COc2ccc(/C=c3\sc4n(c3=O)C(c3ccc(Cl)cc3)C(C(=O)OC(C)C)=C(C)N=4)cc2)CC1.O=C(O)/C=C\C(=O)O` (stereo not shown) [7S9 (133), isopropyl (Z)-5-(4-chlorophenyl)-2-(4-(2-(4-ethylpiperazin-1-yl)-2-oxoethoxy)benzylidene)-7-methyl-3-oxo-2,3-dihydro-5H-thiazolo[3,2-a]pyrimidine-6-carboxylate maleate], the tumor growth inhibition in the series on 4T1 R4 (setting [3]) was 29%; with 4T1 cells [1] (setting [3]) it was 20.3%. Besides, the “tumor growth inhibition, combination” value is on record as 70.2% with 4T1 R4 (7S9 50 mg/kg with paclitaxel 15 mg/kg) and 62.6% in the series on 4T1 cells [1] (7S9 50 mg/kg with paclitaxel 5 mg/kg). Besides, the “inhibitory effect against KIF2C (in words)” value against KIF2C (50 μM (FIG. 4I)) is given as “selective inhibition against KIF2C”. The “KIF2C activity in the presence of paclitaxel (in words)” value on KIF2C (100 μM 7S9, 1 μM paclitaxel) is reported as “could successfully inhibit KIF2C activity in the presence of paclitaxel”. Also, the “inhibition of KIF2C kinesin activity (in words)” value on KIF2C (100 μM (FIG. 4B)) is reported as “most potent inhibitor of KIF2C”. The EC50 at KIF2C (concentration that inhibits 50% of KIF2C activity) was less than 50 µM. Moreover, the “colony formation, combined treatment (in words)” value with 4T1 R4 cells is “suppression of colony formation was detected only with combined treatment of 7S9 and paclitaxel”. In the series with 4T1 cells [2], the “cell penetration, fluorescence signal at 510 nm emission (in words)” value is “good cell-penetrating property”.
